Common to all, as to experiment: Test A preemergence
What all share (type): in vivo

Assay [1] relates to ryegrass, Italian (Italian ryegrass, Lolium multiflorum). Conditions: Lolium multiflorum, pre-emergence, 240 h; for pest or weed control at 125 g/ha: 125 g ai/ha; for pest or weed control at 500 g/ha: 500 g ai/ha. A digest of the protocol:
(§1)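 Visual injury, scored on a 0–100 scale relative to untreated controls, was recorded about 10 d after application. Treatments were a preemergence soil spray over planted seeds or a postemergence spray on plants at the one- to two-leaf stage, 2 to 10 cm tall, all in loam soil–sand blend in the greenhouse.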

The next assay has as its system Kochia (Kochia scoparia). Conditions: Bassia scoparia, pre-emergence, 240 h; for pest or weed control at 125 g/ha: 125 g ai/ha; for pest or weed control at 500 g/ha: 500 g ai/ha. A digest of the protocol:
as §1

The subject of assay [2] is ragweed (common ragweed, Ambrosia elatior). Conditions: Ambrosia artemisiifolia, pre-emergence, 240 h; for pest or weed control at 125 g/ha: 125 g ai/ha; for pest or weed control at 500 g/ha: 500 g ai/ha. A digest of the protocol: as §1
The test system of assay [3] is barnyardgrass (Echinochloa crus-galli). Conditions: Echinochloa crus-galli, pre-emergence, 240 h; for pest or weed control at 125 g/ha: 125 g ai/ha; for pest or weed control at 500 g/ha: 500 g ai/ha. The method, boiled down:
as §1

In assay [4] the test system is pigweed (Amaranthus retroflexus). As to conditions: Amaranthus retroflexus, pre-emergence, 240 h; for pest or weed control at 125 g/ha: 125 g ai/ha; for pest or weed control at 500 g/ha: 500 g ai/ha.
Where [5] appears, read: preemergence, 0 to 100 scale where 0 is no effect and 100 is complete control, approx. 10 d, read-out: Ryegrass, Italian plant response rating.
[6] abbreviates: preemergence, 0 to 100 scale where 0 is no effect and 100 is complete control, read-out: Ryegrass, Italian plant response rating.
Where [7] appears, read: preemergence, 0 to 100 scale where 0 is no effect and 100 is complete control, approx. 10 d, read-out: Kochia plant response rating.
[8] abbreviates: preemergence, 0 to 100 scale where 0 is no effect and 100 is complete control, read-out: Kochia plant response rating.
Where [9] appears, read: preemergence, 0 to 100 scale where 0 is no effect and 100 is complete control, approx. 10 d, read-out: Ragweed plant response rating.
Where [10] appears, read: preemergence, 0 to 100 scale where 0 is no effect and 100 is complete control, read-out: Ragweed plant response rating.
The mark [11] stands for this setting: preemergence, 0 to 100 scale where 0 is no effect and 100 is complete control, approx. 10 d, read-out: Barnyardgrass plant response rating.
Where [12] appears, read: preemergence, visual injury rating about 10 d after treatment, 0 to 100 scale (0 no effect, 100 complete control), read-out: Barnyardgrass plant response rating.
The mark [13] stands for this setting: preemergence, 0 to 100 scale where 0 is no effect and 100 is complete control, approx. 10 d, read-out: Pigweed plant response rating.
[14] abbreviates: preemergence, 0 to 100 scale where 0 is no effect and 100 is complete control, read-out: Pigweed plant response rating.
Where [15] appears, read: preemergence, 0 to 100 scale where 0 is no effect and 100 is complete control, read-out: Barnyardgrass plant response rating.
Setting [16] is: preemergence, visual injury rating about 10 d after treatment, 0 to 100 scale (0 no effect, 100 complete control), read-out: Ryegrass, Italian plant response rating.
Where [17] appears, read: preemergence, visual injury rating about 10 d after treatment, 0 to 100 scale (0 no effect, 100 complete control), read-out: Kochia plant response rating.
Where [18] appears, read: preemergence, visual injury rating about 10 d after treatment, 0 to 100 scale (0 no effect, 100 complete control), read-out: Ragweed plant response rating.
Where [19] appears, read: preemergence, visual injury rating about 10 d after treatment, 0 to 100 scale (0 no effect, 100 complete control), read-out: Pigweed plant response rating.
The mark [20] stands for this setting: Preemergence, visual injury vs untreated controls after approximately 10 d, read-out: Ryegrass, Italian plant response rating (0 to 100 scale where 0 is no effect and 100 is complete control).
The mark [21] stands for this setting: Preemergence, visual injury vs untreated controls after approximately 10 d, read-out: Kochia plant response rating (0 to 100 scale where 0 is no effect and 100 is complete control).
[22] abbreviates: Preemergence, visual injury vs untreated controls after approximately 10 d, read-out: Ragweed plant response rating (0 to 100 scale where 0 is no effect and 100 is complete control).
The mark [23] stands for this setting: Preemergence, visual injury vs untreated controls after approximately 10 d, read-out: Barnyardgrass plant response rating (0 to 100 scale where 0 is no effect and 100 is complete control).
Where [24] appears, read: Preemergence, visual injury vs untreated controls after approximately 10 d, read-out: Pigweed plant response rating (0 to 100 scale where 0 is no effect and 100 is complete control).

SMILES strings stand for the structures. Like-named read-outs stand apart in the source and are kept apart here.

Turning to `CN1C[C@H](c2csc(C(F)F)c2)[C@@H](C(=O)Nc2cccc(F)c2F)C1=O` [Compound 1122], the pest or weed control at 125 g/ha in assay [1] (setting [5]) came out at 70%; with Kochia (Kochia scoparia) (setting [7]), 60%; in assay [2] (setting [9]) it was 70%; in assay [3] (setting [11]) it was 90%; in assay [4] (setting [13]), 30%. Moreover, the pest or weed control at 500 g/ha is 90% in assay [1] (setting [6]); 70% in the assay on Kochia (Kochia scoparia) (setting [8]); 80% in assay [2] (setting [10]); 90% in assay [3] (setting [12]); 70% in assay [4] (setting [14]).

On to `CCc1ccc([C@H]2CNC(=O)[C@@H]2C(=O)Nc2ccccc2SC)cc1` [Compound 1178], for which the pest or weed control at 125 g/ha in assay [1] (setting [5]) came to 0%; in the assay with Kochia (Kochia scoparia) (setting [7]), 40%; in assay [2] (setting [9]), 0%; in assay [3] (setting [11]) it was 20%; in assay [4] (setting [13]), 20%. In addition, the pest or weed control at 500 g/ha in assay [1] (setting [6]) is 20%; in the assay on Kochia (Kochia scoparia) (setting [8]) it was 70%; in assay [2] (setting [10]), 50%; in assay [3] (setting [15]), 50%; in assay [4] (setting [14]), 50%.

For `CC(C)COc1cccc([C@H]2CN(C)C(=O)[C@@H]2C(=O)Nc2ccc(F)cc2F)c1` [Compound 1030], the pest or weed control at 125 g/ha came to 70% in assay [1] (Preemergence, visual injury rating after approximately 10 d, read-out: Ryegrass, Italian plant response rating (0 to 100 scale, 0 is no effect, 100 is complete control)); 0% in the assay on Kochia (Kochia scoparia) (Preemergence, visual injury rating after approximately 10 d, read-out: Kochia plant response rating (0 to 100 scale, 0 is no effect, 100 is complete control)); 0% in assay [2] (Preemergence, visual injury rating after approximately 10 d, read-out: Ragweed plant response rating (0 to 100 scale, 0 is no effect, 100 is complete control)); 70% in assay [3] (Preemergence, visual injury rating after approximately 10 d, read-out: Barnyardgrass plant response rating (0 to 100 scale, 0 is no effect, 100 is complete control)); 0% in assay [4] (Preemergence, visual injury rating after approximately 10 d, read-out: Pigweed plant response rating (0 to 100 scale, 0 is no effect, 100 is complete control)). Besides, the pest or weed control at 500 g/ha in assay [1] (setting [16]) was determined as 70%; in the assay on Kochia (Kochia scoparia) (setting [17]), 70%; in assay [2] (setting [18]), 0%; in assay [3] (setting [12]), 90%; in assay [4] (setting [19]), 0%.

Take `Cc1cc([C@H]2CN(C)C(=O)[C@@H]2C(=O)Nc2ccccc2F)ccc1Cl` [Compound 928]: the pest or weed control at 125 g/ha came to 40% in assay [1] (setting [6]); 80% with Kochia (Kochia scoparia) (setting [8]); 0% in assay [2] (setting [10]); 90% in assay [3] (setting [15]); 0% in assay [4] (setting [14]). For the same compound, the pest or weed control at 500 g/ha came to 70% in assay [1] (setting [16]); 80% in the assay with Kochia (Kochia scoparia) (setting [17]); 0% in assay [2] (setting [18]); 90% in assay [3] (setting [12]); 20% in assay [4] (setting [19]).

On to `CN1C[C@H](c2cc(F)c(F)c(F)c2)[C@@H](C(=O)Nc2ccccc2F)C1=O` [Compound 878], for which the pest or weed control at 125 g/ha in assay [1] (setting [6]) was found to be 30%; in the assay on Kochia (Kochia scoparia) (setting [8]), 70%; in assay [2] (setting [10]) it was 30%; in assay [3] (setting [15]), 100%; in assay [4] (setting [14]), 0%. Besides, the pest or weed control at 500 g/ha is 70% in assay [1] (setting [20]); 90% in the assay on Kochia (Kochia scoparia) (setting [21]); 80% in assay [2] (setting [22]); 100% in assay [3] (setting [23]); 40% in assay [4] (setting [24]).

`COc1cc(C(F)(F)F)ccc1[C@H]1CN(C)C(=O)[C@@H]1C(=O)Nc1cccc(F)c1F` [Compound 859]: the pest or weed control at 125 g/ha in assay [1] (setting [6]) is 20%; in the assay on Kochia (Kochia scoparia) (setting [8]), 50%; in assay [2] (setting [10]) it was 0%; in assay [3] (setting [15]) it was 90%; in assay [4] (setting [14]), 60%. In addition, the pest or weed control at 500 g/ha in assay [1] (setting [20]) came to 80%; in the assay on Kochia (Kochia scoparia) (setting [21]), 60%; in assay [2] (setting [22]), 50%; in assay [3] (setting [23]), 90%; in assay [4] (setting [24]), 80%.

On to `CC(C)Oc1ccc([C@H]2CNC(=O)[C@@H]2C(=O)Nc2ccccc2F)cc1` [Compound 1135], for which the pest or weed control at 125 g/ha (in assay [1] (setting [5]); with Kochia (Kochia scoparia) (setting [7]); in assay [2] (setting [9]); in assay [3] (setting [11]); in assay [4] (setting [13])) was 0% in each case. Besides, the pest or weed control at 500 g/ha (in assay [1] (setting [6]); with Kochia (Kochia scoparia) (setting [8]); in assay [2] (setting [10]); in assay [3] (setting [15]); in assay [4] (setting [14])) was 0% in each case.

In the case of `CCc1ccc([C@H]2CNC(=O)[C@@H]2C(=O)Nc2cccc(F)c2C)cc1` [Compound 1177], the pest or weed control at 125 g/ha in assay [1] (setting [5]) is 30%; in the assay with Kochia (Kochia scoparia) (setting [7]) it was 30%; in assay [2] (setting [9]), 0%; in assay [3] (setting [11]), 70%; in assay [4] (setting [13]), 0%. The pest or weed control at 500 g/ha in assay [1] (setting [6]) came to 70%; in the assay with Kochia (Kochia scoparia) (setting [8]) it was 30%; in assay [2] (setting [10]) it was 30%; in assay [3] (setting [15]), 100%; in assay [4] (setting [14]) it was 20%.

For the compound `COc1cc(C(F)(F)F)ccc1[C@H]1CN(C)C(=O)[C@@H]1C(=O)Nc1ccccc1SC` [Compound 860], the pest or weed control at 125 g/ha in assay [1] (setting [6]) was 20%; with Kochia (Kochia scoparia) (setting [8]), 0%; in assay [2] (setting [10]), 0%; in assay [3] (setting [15]), 90%; in assay [4] (setting [14]), 60%. Also, the pest or weed control at 500 g/ha is 40% in assay [1] (setting [20]); 60% in the assay with Kochia (Kochia scoparia) (setting [21]); 50% in assay [2] (setting [22]); 90% in assay [3] (setting [23]); 90% in assay [4] (setting [24]).

These data come from patent publication US12077503B2, “Substituted cyclic amides and their use as herbicides” (FMC CORPORATION, priority 2015, dated 2024).
